Converted amounts (≈) assume the structure as drawn. Where two headings read alike, the source gives them in different places.
Legend:
Staph. epidermidis = test: MIC, broth microdilution method (NCCLS M7-A5); assay type: cell-based
Strept. pneumoniae = test: MIC, broth microdilution method (NCCLS M7-A5); assay type: cell-based
Ent. gallinarum = test: MIC, broth microdilution method (NCCLS M7-A5); assay type: cell-based; conditions: 4174 Ent. gallinarum
Experimental: Antimicrobial activity of the antibiotic 107891 was determined by the broth microdilution method according to the National Committee for Clinical Laboratory Standards recommendations (NCCLS, document M7-A5).
The strains used were clinical isolates or strains from American Type Culture Collection (ATCC).
Antibiotic 107891 was dissolved in DMSO to obtain a 1000 μg/ml stock solution, and subsequently diluted in water to obtain working solution. The media used were cation-adjusted Mueller Hinton broth (CAMHB) for Staphylococci, M. catarrhalis, Enterococci and L. monocytogenes; Todd Hewitt broth (THB) for Streptococci; GC medium+1% Isovitalex+1% haemine for Neisseria spp.; Brain Hearth Infusion+1% C supplement for H. influenzae; Lactobacillus broth for Lactobacilli; Middlebrook 7H9 with Middlebrook OADC enrichment for M. smegmatis; RPMI 1640 Medium for C. albicans. Wilkins Chalgren broth+oxyrase (1:25 v/v) for Clostridia; Brucella broth containing cisteine (0.5 g/L) for Propionibacteria. Inocula for bacteria were 10^5 CFU/ml. C. albicans inoculum was 1×10^4 CFU/ml. All the tests were performed in presence of 0.02% of bovine serum albumin (BSA). […] After 18-24 hours visual readings were performed and MICs determined. […]
Table VIII reports the antimicrobial activities of the individual Factors A1 and A2 of antibiotic 107891. MICs were determined by microbroth dilution method as above described.

Neisseria meningitidis = conditions: 1613 Neisseria meningitidis
Neisseria gonorrhaee = conditions: 997 Neisseria gonorrhaee
Propionibacterium acnes = conditions: 1016 Propionibacterium. acnes
[1] = 1400 Staphylococcus aureus cl. isol. Met r
[2] = 4341 Ent. faecalis VanB (first line, r17)
[3] = 4341 Ent. faecalis VanB (second line, r19)
[4] = 569 Enterococcus faecium cl. isol. Van A

Row | Structure (SMILES) | MIC (Strept. pneumoniae; 3915 Strept. pneumoniae Pen-S) | MIC (Strept. pneumoniae; 3919 Strept. pneumoniae Pen-R) | MIC (Ent. gallinarum) [µg/mL] | MIC (Staph. aureus; 819 Staph. aureus Met-S) | MIC (Staph. aureus; [1]) [µg/mL] | MIC (Staph. aureus; 1524 Staph. aureus Met-R) | MIC (Staph. aureus; 2235 Staph. aureus Met-R) [µg/mL] | MIC (Ent. faecalis) [µg/mL] | MIC (Ent. faecalis; 4323 Ent. faecalis VanA) | MIC (Ent. faecalis; [2]) [µg/mL] | MIC (Ent. faecalis; [3]) [µg/mL] | MIC (Ent. faecalis; 4397 Ent. faecalis VanB) [µg/mL] | MIC (Ent. faecalis; J1 Ent. faecalis VanA) [µg/mL] | MIC (Ent. faecium; 3 Ent. faecium Van A) [µg/mL] | MIC (Ent. faecium; 4 Ent. faecium Van A) [µg/mL] | MIC (Ent. faecium; [4]) [µg/mL] | MIC (Ent. faecium; 4339 Ent. faecium VanD) [µg/mL] | MIC (Ent. faecium; 6349 Ent. faecium Van A LNZ-R) [µg/mL] | MIC (Ent. faecium; A8 Ent. faecium Van A) [µg/mL] | MIC (Ent. faecium; D561 Ent. faecium Van A) [µg/mL] | also measured
1 | C=C1NC(=O)C(Cc2c[nH]c3ccc(Cl)cc23)NC(=O)C(NC(=O)C(=CC)NC(=O)C(N)C(C)C)CSCC(C(=O)NC2C(=O)N3CCCC3C(=O)NCC(=O)NC(C(=O)NC(C(=O)NC3CSCC4NC(=O)C(CC(N)=O)NC(=O)C(CSCC5NC(=O)C(Cc6ccccc6)NC(=O)C(CS/C=C\NC5=O)NC4=O)NC(=O)CNC(=O)CNC(=O)CNC(=O)C4C(O)C(O)CN4C3=O)C(C)O)CSC2C)NC(=O)C(CC(C)C)NC1=O (centres unmarked) [Factor A1] | ≦0.0015 μg/ml | ≦0.0015 μg/ml | 1 (≈ 0.445 µM) | ≦0.03 μg/ml | 0.13 (≈ 0.0578 µM) | ≦0.03 μg/ml | 0.06 (≈ 0.0267 µM) | 1 (≈ 0.445 µM) | ≦0.03 μg/ml | 0.5 (≈ 0.222 µM) | 2 (≈ 0.889 µM) | 1 (≈ 0.445 µM) | 1 (≈ 0.445 µM) | 0.5 (≈ 0.222 µM) | 1 (≈ 0.445 µM) | 1 (≈ 0.445 µM) | 0.25 (≈ 0.111 µM) | 2 (≈ 0.889 µM) | 0.5 (≈ 0.222 µM) | 2 (≈ 0.889 µM) | MIC (Staph. epidermidis; 3894 Staph. epidermidis Met-R): ≦0.03 μg/ml; MIC (Neisseria meningitidis): 0.25 µg/mL (≈ 0.111 µM); MIC (Neisseria gonorrhaee): 0.5 µg/mL (≈ 0.222 µM); MIC (Propionibacterium acnes): <0.03 µg/mL
2 | C=C1NC(=O)C(Cc2c[nH]c3ccc(Cl)cc23)NC(=O)C(NC(=O)C(=CC)NC(=O)C(N)C(C)C)CSCC(C(=O)NC2C(=O)N3CCCC3C(=O)NCC(=O)NC(C(=O)NC(C(=O)NC3CSCC4NC(=O)C(CC(N)=O)NC(=O)C(CSCC5NC(=O)C(Cc6ccccc6)NC(=O)C(CS/C=C\NC5=O)NC4=O)NC(=O)CNC(=O)CNC(=O)CNC(=O)C4CC(O)CN4C3=O)C(C)O)CSC2C)NC(=O)C(CC(C)C)NC1=O (centres unmarked) [Factor A2] | ≦0.0015 μg/ml | ≦0.0015 μg/ml | 1 (≈ 0.448 µM) | ≦0.03 μg/ml | 0.13 (≈ 0.0582 µM) | ≦0.03 μg/ml | 0.06 (≈ 0.0269 µM) | 2 (≈ 0.896 µM) | ≦0.03 μg/ml | 0.5 (≈ 0.224 µM) | 2 (≈ 0.896 µM) | 1 (≈ 0.448 µM) | 1 (≈ 0.448 µM) | 0.5 (≈ 0.224 µM) | 1 (≈ 0.448 µM) | 2 (≈ 0.896 µM) | 0.25 (≈ 0.112 µM) | 2 (≈ 0.896 µM) | 0.5 (≈ 0.224 µM) | 2 (≈ 0.896 µM) | MIC (Staph. epidermidis; 3881 Staph. epidermidis Met-R): ≦0.03 μg/ml; MIC (Ent. faecium; 568 Enterococcus faecium cl. isol.): 2 µg/mL (≈ 0.896 µM); MIC (Neisseria meningitidis): 0.25 µg/mL (≈ 0.112 µM); MIC (Neisseria gonorrhaee): 0.25 µg/mL (≈ 0.112 µM); MIC (Propionibacterium acnes): 0.06 µg/mL (≈ 0.0269 µM)
3 | C=C1NC(=O)[C@H](Cc2c[nH]c3ccc(Cl)cc23)NC(=O)[C@H](NC(=O)/C(=C/C)NC(=O)[C@@H](N)C(C)C)CSC[C@@H](C(=O)N[C@H]2C(=O)N3CCC[C@H]3C(=O)NCC(=O)N[C@H](C(=O)N[C@H](C(=O)N[C@@H]3CSC[C@@H]4NC(=O)[C@H](CC(N)=O)NC(=O)[C@@H](CSC[C@@H]5NC(=O)[C@H](Cc6ccccc6)NC(=O)[C@@H](CS/C=C\NC5=O)NC4=O)NC(=O)CNC(=O)CNC(=O)CNC(=O)[C@@H]4CCCN4C3=O)[C@@H](C)O)CS[C@H]2C)NC(=O)[C@H](CC(C)C)NC1=O [MF-BA-1768α1, reference compound] |  |  |  |  |  |  |  | 4 (≈ 1.8 µM) |  |  |  |  |  |  |  |  |  |  |  |  | 

— patent publication US7351687B2, “Antibiotic 107891, its factors A1 and A2, pharmaceutically acceptable salts and compositions, and use thereof” (priority 2003, dated 2008)
